Consider three molecules from ChEMBL document CHEMBL2417456, “Hit identification and optimization in virtual screening: practical recommendations based on a critical literature analysis” (J Med Chem, 2013).

The test system of assay [1] is Human immunodeficiency virus 1. The assay can be described thus: Antiviral activity against HIV1 infected in human MT2 cells assessed as protection from viral replication. The class given is functional, organism-based. Conditions: Human immunodeficiency virus 1, MT2.
Assay [2] is described as follows: Inhibition of HIV1 His6-tagged integrase-FLAG-tagged LEDGF/p75 (unknown origin) interaction after 1 hr by AlphaScreen assay.

Turning to `COc1ccc(Cc2nnc(Nc3ccc(C)cc3)o2)cc1OC`, the EC50 in assay [1] was over 100 µM.

For `O=C(O)/C(O)=C/C(=O)c1cn(Cc2ccc(F)cc2)c2ccccc12`, the IC50 in assay [2] stood at 100 µM.

In the case of `O=C(O)/C(O)=C/C(=O)c1c[nH]c2cccc(O)c12`, 35 µM corresponded to half-maximal inhibition in assay [2] (IC50).
